Experimental data published in article PMC3070159 (Journal of medicinal chemistry, 2010).

Target: T1, human sEH (Homo sapiens, UniProt P34913)
T1 sequence (P34913 1-555): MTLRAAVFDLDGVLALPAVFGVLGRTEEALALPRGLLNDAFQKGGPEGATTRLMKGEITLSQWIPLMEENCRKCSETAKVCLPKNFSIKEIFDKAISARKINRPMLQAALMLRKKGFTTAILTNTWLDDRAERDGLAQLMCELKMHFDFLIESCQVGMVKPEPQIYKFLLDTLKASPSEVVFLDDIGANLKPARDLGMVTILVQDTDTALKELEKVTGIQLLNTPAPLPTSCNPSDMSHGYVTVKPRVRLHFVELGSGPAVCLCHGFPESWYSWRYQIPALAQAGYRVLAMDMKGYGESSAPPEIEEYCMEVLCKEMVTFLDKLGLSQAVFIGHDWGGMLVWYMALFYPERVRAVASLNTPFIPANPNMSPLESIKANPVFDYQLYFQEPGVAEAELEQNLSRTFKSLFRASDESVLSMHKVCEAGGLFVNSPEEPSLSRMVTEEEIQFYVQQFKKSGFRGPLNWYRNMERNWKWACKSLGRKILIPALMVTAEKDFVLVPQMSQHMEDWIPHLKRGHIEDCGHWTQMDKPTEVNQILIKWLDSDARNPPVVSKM
Experiment: fluorescent substrate
Type: biochemical

Row | Compound | change fold | fold increase in potency relative to N4-methyl substituted analog 16c (human sEH IC50 ratio) | fold increase in potency relative to N4-unsubstituted analog 24c (human sEH IC50 ratio)
1 | CC(C)(C)OC(=O)N1CCN(CCCCOc2ccccc2NC(=O)NC23CC4CC(CC(C4)C2)C3)CC1 [Compound 21a] | 191 | – | –
2 | CC(=O)N1CCN(CCCOc2ccc(NC(=O)NC34CC5CC(CC(C5)C3)C4)cc2)CC1 [Compound 28c, 1-(4-(3-(4-acetylpiperazin-1-yl)propoxy)phenyl)-3-adamantan-1-ylurea] | – | 5.4 fold | 47.2 fold
3 | CC(=O)N1CCN(CCCCOc2ccc(NC(=O)NC34CC5CC(CC(C5)C3)C4)cc2)CC1 [Compound 29c, 1-(4-(4-(4-acetylpiperazin-1-yl)butoxy)phenyl)-3-adamantan-1-yl urea] | −2.9 | – | –
